Experimental data: patent US5459131A, “Renin inhibitors” (American Cyanamid Company, priority 1991, dated 1995)

Each substance was assayed against T1, human kidney renin (Homo sapiens, UniProt P00797) (assay: Radioimmunoassay screen for renin inhibitors (angiotensin I generation, then RIA quantitation)). Details: purified human plasma angiotensinogen substrate, maleate buffer pH 6.0, 1 hour at 37° C.; read-out: Renin Inhibition IC50 Molar Concentration.
T1 construct: Human renin is prepared from human kidney; from tissue; host or cells: human kidney
T1 sequence (P00797 67-406): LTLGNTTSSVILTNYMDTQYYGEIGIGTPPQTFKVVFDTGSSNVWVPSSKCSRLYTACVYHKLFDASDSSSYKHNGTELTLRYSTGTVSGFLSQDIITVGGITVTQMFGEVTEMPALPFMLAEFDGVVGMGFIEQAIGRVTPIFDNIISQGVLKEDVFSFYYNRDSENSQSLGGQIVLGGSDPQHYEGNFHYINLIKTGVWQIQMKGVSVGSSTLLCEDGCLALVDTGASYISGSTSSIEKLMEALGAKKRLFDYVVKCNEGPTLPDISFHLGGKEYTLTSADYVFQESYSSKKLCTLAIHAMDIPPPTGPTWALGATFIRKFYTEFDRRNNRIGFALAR
Format: biochemical
Method: Radioimmunoassay Screen For Renin Inhibitors
The in vitro method for the screening of anti-renin compounds involves, first, angiotensin I generation, and second, the quantitation of the angiotensin I produced by radioimmunoassay.
The incubation medium consisted of 20 μl of purified human plasma angiotensinogen; (1) 10 μl of human kidney renin; (2) 5 μl of phenylmethylsulfonyl fluoride; 10 μl of disodium EDTA (10 mM); 10 μl of antirenin compound (5×10^-3 M, 5×10^-4 M, 5×10^-5 M) in dimethylformamide, or ethanol and a suitable amount of maleate buffer (77 mM, pH 6.0) to make a final volume of 500 μl . The reaction mixture is incubated for one hour at 37° C. and the enzymatic reaction is stopped by placing the tube in ice-cold water. The angiotensin I generated during the incubation is measured by a radioimmunoassay plasma renin activity kit (Clinical Assays, Inc.).
Radioimmunoassay Procedure
The incubation medium consisted of either 100 μl aliquots of the above reaction mixture or a standard amount of angiotensin I; 1000 μl of phosphate buffer (100 mM, pH 7.6) and 100 μl of (^125 I) angiotensin in a gamma-coat tube. After three hours of incubation at room temperature, the tubes are decanted, and the radioactivity of each tube is determined in a gamma counter. Duplicate determinations are performed for each incubation. The results are expressed in ng of angiotensin I generated per ml of generation medium per hour of incubation (ng/AI/ml/hr).
The results of this test on representative compounds of this invention appear in Table I, expressed as an IC50.
(1) The human plasma angiotensinogen derived from the blood of a person receiving oral contraceptive pills is purified by chromatography on a pepstatinaminohexyl-agarose column.
(2) Human renin is prepared from human kidney.

Substance	IC50
[S-(R*,R*)]4,7-anhydro-2-[[2-[[4-(2-benzofuranyl)-1,4-dioxo-2-(phenylmethyl)butyl]amino]-3-(1H-imidazol-4-yl)-1-oxopropyl]amino]-1-cyclohexyl-1,2,5,6-tetradeoxy-L-arabino-Heptitol	42 nM
[S-(R*,R*)]-4,7-anhydro-1-cyclohexyl-1,2,5,6-tetradeoxy-2-[[4-methyl-2-[[4-[3-[(methylamino)sulfonyl]phenyl]-1,4-dioxo-2-(phenylmethyl)buyhl]amino]-1-oxopentyl]amino]-L-arabino-Heptitol	71 nM
[S-(R*,S*)[-4,7-anhydro-2-[[2-[[4-(2-benzofuranyl)-1,4-dioxo-2-(phenylmethyl)butyl]amino]-3-(1H-imidazol-4-yl)-1-oxopropyl]amino]-1-cyclohexyl-1,2,5,6-tetradeosy-L-arabino-Heptitol	1.5 nM
[S-(R*,S*)]-1-cyclohexyl-1,2,4,5,6,7-hexadeoxy-2-[[2-[[1,4-dioxo-4-phenyl-2-(phenylmethyl)butyl]amino]-4-methyl-1-oxopentyl]amino]-4,7-epithio-L-arabino-Heptitol, [R (or S)]-S-oxide	12 nM
[S-(R*,S*)]-1-cyclohexyl-2-[[2-[[1,4-dioxo-4-phenyl-2-(phenylmethyl)butyl]amino]-4-methyl-1-oxopentyl]amino]-4,7-epithio-1,2,4,5,6,7-hexadeoxy-L-arabino-Heptitol, (R and S)-S-oxide	8.3 nM
[S-(R*,S*)]-4,7-anhydro-1-cyclohexyl-1,2,5,6-tetradeoxy-2-[[2-[[1,4-dioxo-2-(phenylmethyl)-4-(2-thienyl)butyl]amino]-4-methyl-1-oxo-pentyl]amino]-L-arabino-Heptitol	0.08 nM
[S-(R*,S*)]-4,7-anhydro-1-cyclohexyl-1,2,5,6-tetradeoxy-2-[[4-methyl-2-[[4-[3-[(methylamino)sulfonyl]phenyl]-1,4-dioxo-2-(phenylmethyl)butyl]amino]-1-oxopentyl]amino]-L-arabino-Heptitol	2.4 nM
[S-(R*,S*)]-4,7-anhydro-1-cyclohexyl-1,2,5,6-tetradoxy-2-[[2-[[1,4-dioxo-4-phenyl-2-(phenylmethyl)butyl]amino]-4-methyl-1-oxopentyl]amino]-D-xylo-Heptitol	470 nM
